Our source for the EC50 and melting point values is patent US20220089609A1, “SUBSTITUTED QUINAZOLINONE DERIVATIVES AND THEIR USE AS POSITIVE ALLOSTERIC MODULATORS OF MGLUR4” (DOMAIN THERAPEUTICS, priority 2018, published 2022).

A value given as a limit tells only on which side of the number the result lay.

A word on the melting point: it is the temperature of the solid-liquid transition.

For data set [1], the target named is T1, human mGluR4 (hmGluR4) (Homo sapiens, UniProt Q14833).
T1 construct: expressed in transfected cells; host or cells: HEK-293 cells, transient co-transfection by electroporation
Put plainly: Calcium assay EC50 determination, positive allosteric modulator activity on hmGluR4 transiently over-expressed in HEK-293 cells. In kind it is cell-based. The conditions noted are these: PAM mode with EC20 glutamate; hmGluR4 in HEK-293 cells; intracellular calcium (Fluo4AM); read-out: mGluR4 positive allosteric modulator activity, half maximal effective concentration (EC50). Put shortly: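 HEK-293 cells transiently co-transfected with hmGluR4, chimeric G protein and glutamate transporters; Fluo4AM calcium read (ex 485/em 525 nm) on FLIPR Tetra. Compound alone 10 min for agonism, then EC20 glutamate with 3 min recording for PAM activity, versus buffer or EC20 glutamate basal.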
For orientation: Calcium flux is commonly read through the fluorescence of an indicator in the cells.

T1 sequence (Q14833 33-912): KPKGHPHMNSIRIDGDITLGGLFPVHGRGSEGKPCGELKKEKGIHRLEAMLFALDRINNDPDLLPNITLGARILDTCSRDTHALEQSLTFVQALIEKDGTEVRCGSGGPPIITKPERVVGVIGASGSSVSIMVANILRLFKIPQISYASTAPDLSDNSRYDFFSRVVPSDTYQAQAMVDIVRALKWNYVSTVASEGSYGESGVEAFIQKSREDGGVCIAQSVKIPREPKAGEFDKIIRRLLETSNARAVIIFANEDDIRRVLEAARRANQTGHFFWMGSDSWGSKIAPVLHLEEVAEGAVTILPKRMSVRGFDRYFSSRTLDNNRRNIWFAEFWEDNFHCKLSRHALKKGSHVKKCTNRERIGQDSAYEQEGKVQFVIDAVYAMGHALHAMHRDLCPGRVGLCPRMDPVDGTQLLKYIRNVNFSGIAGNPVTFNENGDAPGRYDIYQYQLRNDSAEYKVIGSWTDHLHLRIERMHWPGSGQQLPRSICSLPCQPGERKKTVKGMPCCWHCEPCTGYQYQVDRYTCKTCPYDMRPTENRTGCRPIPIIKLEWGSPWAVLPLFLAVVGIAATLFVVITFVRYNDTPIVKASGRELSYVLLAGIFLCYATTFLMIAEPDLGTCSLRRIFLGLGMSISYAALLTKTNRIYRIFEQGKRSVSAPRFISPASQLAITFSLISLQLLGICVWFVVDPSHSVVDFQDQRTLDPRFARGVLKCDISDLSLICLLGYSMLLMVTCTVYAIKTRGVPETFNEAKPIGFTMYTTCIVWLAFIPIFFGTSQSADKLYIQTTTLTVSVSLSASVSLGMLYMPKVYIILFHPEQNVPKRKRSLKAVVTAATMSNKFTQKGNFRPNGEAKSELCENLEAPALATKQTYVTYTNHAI

Compound `Cc1cc(CN2CCCC2)cc2c(=O)[nH]c(-c3cc4ccsc4cn3)nc12.Cl` [Compound 133, 8-Methyl-6-(pyrrolidin-1-ylmethyl)-2-thieno[2,3-c]pyridin-5-yl-3H-quinazolin-4-one hydrochloride] registered a melting point above 250 °C. Besides, the EC50 in data set [1] was 1000 to 10000 nM.
For `Cc1cc(CC(=O)N2CCOCC2)cc2c(=O)[nH]c(-c3cc4cccn4cn3)nc12` [Compound 134, 8-Methyl-6-(2-morpholino-2-oxo-ethyl)-2-pyrrolo[1,2-c]pyrimidin-3-yl-3H-quinazolin-4-one], in that order: 254 to 256 °C and at most 100 nM.
With `Cc1cc(OC2CCC(=O)N(C)C2)cc2c(=O)[nH]c(-c3cc(C(F)(F)F)ccn3)nc12` (centres unmarked) [Compound 136, 8-Methyl-6-(1-methyl-6-oxo-piperidin-3-yloxy)-2-(4-trifluoromethyl-pyridin-2-yl)-3H-quinazolin-4-one], the melting point was above 250 °C. The EC50 in data set [1] is at most 100 nM.
For `Cc1cc(CN2CCSCC2)cc2c(=O)[nH]c(-c3cc4ccsc4cn3)nc12.Cl` [Compound 137, 8-Methyl-2-thieno[2,3-c]pyridin-5-yl-6-(thiomorpholinomethyl)-3H-quinazolin-4-one hydrochloride], in that order: above 250 °C and at most 100 nM.
For `Cc1cc(CC(=O)N2CCCOCC2)cc2c(=O)[nH]c(-c3cc4ccsc4cn3)nc12` [Compound 138, 8-Methyl-6-[2-(1,4-oxazepan-4-yl)-2-oxo-ethyl]-2-thieno[2,3-c]pyridin-5-yl-3H-quinazolin-4-one], in that order: 215 to 220 °C and at most 100 nM.
Taken in the same sequence, the figures for `Cc1cc(CN2CCCC2)cc2c(=O)[nH]c(-c3cc4sccc4cn3)nc12.Cl` [Compound 139, 8-Methyl-6-(pyrrolidin-1-ylmethyl)-2-thieno[3,2-c]pyridin-6-yl-3H-quinazolin-4-one hydrochloride] were above 250 °C and 1000 to 10000 nM.
With `Cc1cc(O[C@H]2CCN(C(=O)OCc3ccccc3)C2)cc2c(=O)[nH]c(-c3cc4sccc4cn3)nc12` [Compound 141, Benzyl (3S)-3-[(8-methyl-4-oxo-2-thieno[3,2-c]pyridin-6-yl-3H-quinazolin-6-yl)oxy]pyrrolidine-1-carboxylate], the melting point lay in the range of 224 to 227 °C. Besides, in data set [1], the EC50 lay within 100 to 1000 nM.
Taken in the same sequence, the figures for `Cc1cc(CCN2CCN(C)C(=O)C2)cc2c(=O)[nH]c(-c3cc4ccsc4cn3)nc12.Cl` [Compound 142, 8-Methyl-6-[2-(4-methyl-3-oxo-piperazin-1-yl)ethyl]-2-thieno[2,3-c]pyridin-5-yl-3H-quinazolin-4-one hydrochloride] were above 250 °C and 100 to 1000 nM.
The compound `Cc1cc(CCN2CCN(C)C(=O)C2)cc2c(=O)[nH]c(-c3cc(C(F)(F)F)ccn3)nc12.Cl` [Compound 144, 8-Methyl-6-[2-(4-methyl-3-oxo-piperazin-1-yl)ethyl]-2-[4-(trifluoromethyl)-2-pyridyl]-3H-quinazolin-4-one hydrochloride] had a melting point of 148 to 150 °C. Also, the EC50 in data set [1] lay within 100 to 1000 nM.
With `Cc1cc(CCN2CC3(COC3)C2)cc2c(=O)[nH]c(-c3cc4ccsc4cn3)nc12` [Compound 145, 8-Methyl-6-[2-(2-oxa-6-azaspiro[3.3]heptan-6-yl)ethyl]-2-thieno[2,3-c]pyridin-5-yl-3H-quinazolin-4-one], the melting point was in the range of 220 to 225 °C. In addition, the EC50 in data set [1] was in the range of 1000 to 10000 nM.
For `Cc1cc(CCN2CC3(COC3)C2)cc2c(=O)[nH]c(-c3cc4sccc4cn3)nc12` [Compound 146, 8-Methyl-6-[2-(2-oxa-6-azaspiro[3.3]heptan-6-yl)ethyl]-2-thieno[3,2-c]pyridin-6-yl-3H-quinazolin-4-one], in that order: 160 to 200 °C and 100 to 1000 nM.
Taken in the same sequence, the figures for `COCCN(C)CCc1cc(C)c2nc(-c3cc4sccc4cn3)[nH]c(=O)c2c1.Cl` [Compound 148, 6-(2-((2-Methoxyethyl)(methyl)amino)ethyl)-8-methyl-2-(thieno[3,2-c]pyridin-6-yl)quinazolin-4(3H)-one hydrochloride] were 149 to 162 °C and 1000 to 10000 nM.
For `Cc1cc(CCN2CCS(=O)(=O)CC2)cc2c(=O)[nH]c(-c3cc4sccc4cn3)nc12` [Compound 149, 6-(2-(1,1-Dioxidothiomorpholino)ethyl)-8-methyl-2-(thieno[3,2-c]pyridin-6-yl)quinazolin-4(3H)-one], the melting point lay within 200 to 212 °C. The EC50 in data set [1] was at most 100 nM.
Consider `Cc1cc(CN2CCS(=O)(=O)CC2)cc2c(=O)[nH]c(-c3cc4sccc4cn3)nc12` [Compound 150, 6-[(1,1-Dioxo-1,4-thiazinan-4-yl)methyl]-8-methyl-2-thieno[3,2-c]pyridin-6-yl-3H-quinazolin-4-one], for which the melting point fell in the range of 245 to 250 °C. For the same compound, in data set [1], the EC50 was at most 100 nM.
For `COCCN(C)Cc1cc(C)c2nc(-c3cc4sccc4cn3)[nH]c(=O)c2c1.Cl` [Compound 151, 6-(((2-Methoxyethyl)(methyl)amino)methyl)-8-methyl-2-(thieno[3,2-c]pyridin-6-yl)quinazolin-4(3H)-one hydrochloride], in that order: 205 to 215 °C and 100 to 1000 nM.
For the compound `Cc1cc(CN2CCC3(CC2)COC3)cc2c(=O)[nH]c(-c3cc4sccc4cn3)nc12` [Compound 155, 8-Methyl-6-(2-oxa-7-azaspiro[3.5]nonan-7-ylmethyl)-2-thieno[3,2-c]pyridin-6-yl-3H-quinazolin-4-one], the melting point is above 250 °C. In addition, in data set [1], the EC50 is at most 100 nM.
For `COc1cc(CCN2CCOCC2)cc2c(=O)[nH]c(-c3cc(C(F)(F)F)ccn3)nc12.Cl` [Compound 158, 8-Methoxy-6-(2-morpholinoethyl)-2-(4-(trifluoromethyl)pyridin-2-yl)quinazolin-4(3H)-one hydrochloride], in that order: above 250 °C and 1000 to 10000 nM.
Taken in the same sequence, the figures for `Cl.O=c1[nH]c(-c2cc(C(F)(F)F)ccn2)nc2c(Br)cc(CCN3CCOCC3)cc12` [Compound 159, 8-Bromo-6-(2-morpholinoethyl)-2-(4-(trifluoromethyl)pyridin-2-yl)quinazolin-4(3H)-one hydrochloride] were above 250 °C and at most 100 nM.
Taken in the same sequence, the figures for `Cc1cc(CCN2CCOC(C)(C)C2)cc2c(=O)[nH]c(-c3cc(C(F)(F)F)ccn3)nc12.Cl` [Compound 160, 6-(2-(2,2-dimethylmorpholino)ethyl)-8-methyl-2-(4-(trifluoromethyl)pyridin-2-yl)quinazolin-4(3H)-one hydrochloride] were 106 to 116 °C and at most 100 nM.
For the compound `Cc1cc(CN2CCN(C)C(=O)C2)cc2c(=O)[nH]c(-c3cc(C(F)(F)F)ccn3)nc12.Cl` [Compound 161, 8-Methyl-6-((4-methyl-3-oxopiperazin-1-yl)methyl)-2-(4-(trifluoromethyl)pyridin-2-yl)quinazolin-4(3H)-one hydrochloride], the melting point is above 250 °C. Further, in data set [1], the EC50 is 100 to 1000 nM.
The compound `Cc1cc(CCN2CC3CCC(C2)O3)cc2c(=O)[nH]c(-c3cc(C(F)(F)F)ccn3)nc12.Cl` [Compound 162, 6-(2-(8-Oxa-3-azabicyclo[3.2.1]octan-3-yl)ethyl)-8-methyl-2-(4-(trifluoromethyl)pyridin-2-yl)quinazolin-4(3H)-one hydrochloride] returned a melting point of 160 to 170 °C. The EC50 in data set [1] is at most 100 nM.
Turning to `Cc1cc(CCN2C3CCC2COC3)cc2c(=O)[nH]c(-c3cc(C(F)(F)F)ccn3)nc12.Cl` [Compound 163, 6-(2-(3-oxa-8-azabicyclo[3.2.1]octan-8-yl)ethyl)-8-methyl-2-(4-(trifluoromethyl)pyridin-2-yl)quinazolin-4(3H)-one hydrochloride], the melting point lay within 200 to 250 °C. Moreover, in data set [1], the EC50 is at most 100 nM.
In turn, `Cc1cc(CCN2CCC(O)CC2)cc2c(=O)[nH]c(-c3cc(C(F)(F)F)ccn3)nc12.Cl` [Compound 164, 6-(2-(4-hydroxypiperidin-1-yl)ethyl)-8-methyl-2-(4-(trifluoromethyl)pyridin-2-yl)quinazolin-4(3H)-one hydrochloride] displayed a melting point of 115 to 125 °C. Also, in data set [1], the EC50 lay within 100 to 1000 nM.
Compound `Cc1cc(CCN2CCC(F)(F)CC2)cc2c(=O)[nH]c(-c3cc(C(F)(F)F)ccn3)nc12.Cl` [Compound 165, 6-(2-(4,4-difluoropiperidin-1-yl)ethyl)-8-methyl-2-(4-(trifluoromethyl)pyridin-2-yl)quinazolin-4(3H)-one hydrochloride] had a melting point of 240 to 250 °C. The EC50 in data set [1] is 100 to 1000 nM.
`COC1CCN(CCc2cc(C)c3nc(-c4cc(C(F)(F)F)ccn4)[nH]c(=O)c3c2)CC1.Cl` [Compound 166, 6-(2-(4-methoxypiperidin-1-yl)ethyl)-8-methyl-2-(4-(trifluoromethyl)pyridin-2-yl)quinazolin-4(3H)-one hydrochloride] gave a melting point above 250 °C. In addition, in data set [1], the EC50 was in the range of 100 to 1000 nM.
